Measurements published in ChEMBL document CHEMBL2010642, “Trichostatin analogues JBIR-109, JBIR-110, and JBIR-111 from the marine sponge-derived Streptomyces sp. RM72” (J Nat Prod, 2012).

What follows are molecules tested against Histone deacetylase 1 (Homo sapiens, UniProt Q13547) (assay: Inhibition of human HDAC1 after 30 mins by fluorescence assay).
Histone deacetylase 1, sequence (Q13547 whole entry): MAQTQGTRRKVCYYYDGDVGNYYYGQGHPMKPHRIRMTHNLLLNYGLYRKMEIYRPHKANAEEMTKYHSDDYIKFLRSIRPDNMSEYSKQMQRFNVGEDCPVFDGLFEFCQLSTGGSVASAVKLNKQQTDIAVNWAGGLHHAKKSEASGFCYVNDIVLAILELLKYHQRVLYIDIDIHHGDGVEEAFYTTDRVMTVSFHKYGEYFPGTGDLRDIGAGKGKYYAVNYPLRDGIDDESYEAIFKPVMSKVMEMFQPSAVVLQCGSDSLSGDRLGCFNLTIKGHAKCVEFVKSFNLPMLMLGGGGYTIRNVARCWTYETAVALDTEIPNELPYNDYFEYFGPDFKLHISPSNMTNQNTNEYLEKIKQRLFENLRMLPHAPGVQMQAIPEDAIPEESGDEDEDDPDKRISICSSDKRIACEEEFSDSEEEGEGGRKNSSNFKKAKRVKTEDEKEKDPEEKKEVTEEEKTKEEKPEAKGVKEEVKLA

IC50	Compound
48 µM	CC(/C=C/C(=O)N[C@@H](CCC(=O)O)C(=O)O)=C\[C@@H](C)C(=O)c1ccc(N(C)C)cc1
74 µM	CC(/C=C/C(=O)NCCS(=O)(=O)O)=C\[C@@H](C)C(=O)c1ccc(N(C)C)cc1
57 µM	CC(/C=C/C(=O)N[C@](C)(CO)C(=O)O)=C\[C@@H](C)C(=O)c1ccc(N(C)C)cc1
73 µM	CC(/C=C/C(=O)O)=C\[C@@H](C)C(=O)c1ccc(N(C)C)cc1 [TRICHOSTATIC ACID]
